Measured values taken from paper PMC3019225, “Striatal Pre- and Postsynaptic Profile of Adenosine A2A Receptor Antagonists” (PLoS ONE, 2011).

What was measured:
[1] = system: striatal glutamate release induced by cortical electrical stimulation; design: method as in PMID 19936569; conditions: intrastriatal perfusion; previous study; ref [5]; cited from earlier work
[2] = system: rats; test: Motor output induced by cortical electrical stimulation (EMG recording, power correlation coefficient PCC); type: in vivo, rat; conditions: for Dose significantly reducing PCC: i.p., PCC 40 min after administration
Experimental: (§1) Male Sprague-Dawley rats (Charles River Laboratories, Wilmington, MA) weighting between 300–350 g were used in these experiments. Rats were housed 2 per cage and they maintained at a temperature of 22±2°C on a regular 12-h light–dark cycle. Food and water were available ad libitum.
(§2) All drugs but MSX-3 (Sigma-Aldrich, St. Louis, MI) were provided by CHDI Foundation Inc. (Los Angeles, CA, US). SCH-420814 was administered subcutaneously (s.c.) at 1 ml/kg and the other drugs were administered via intraperitonal (i.p.) injection at volume of 2 ml/kg.
Rats were anesthetized with 3 ml/kg of Equithesin (4.44 g of chloral hydrate, 0.972 g of Na pentobarbital, 2.124 g of MgSO4, 44.4 ml of propylene glycol, 12 ml of ethanol and distilled H2O up to 100 ml of final solution; NIDA Pharmacy, Baltimore, MD) and implanted unilaterally with bipolar stainless steel electrodes, 0.15 mm in diameter (Plastics One, Roanoke, VA), into the orofacial area of the lateral agranular motor cortex (3 mm anterior, 3 and 4 mm lateral, and 4.2 mm below bregma). The electrodes and a head holder (connected to a swivel during stimulation) were fixed on the skull with stainless steel screws and dental acrylic resin. For the experiments with electromyographic (EMG) recording, electrodes were also implanted in mastication muscles (during the same surgical procedure). Two 5 mm-long incisions were made in the skin on the upper and lower jaw areas to expose the masseter and the lateral pterygoid muscles. […] The bare tips of the electrodes were then held in contact with the masseter and the lateral pterygoid muscles and the skin was closed with surgical staples. The other end of the recording electrodes was encased in a molded plastic pedestal with a round threaded post which was attached to an electrical swivel and then to a differential amplifier (Grass LP511, Grass Instruments, Warwick, RI). The pedestal was secured to the skull with dental cement together with the stimulation electrodes. For the in vivo microdialysis experiments, concentric microdialysis probes with 2-mm long dialysis membranes (Eicom Corp., Tokio, Japan) were implanted respectively into the striatum ipsilateral to the stimulation electrodes (0.0 mm AP, 4.5 ML and 7.0 mm DV).
Rats were placed in individual bowl chambers. Both stimulation electrodes and recording electrodes were attached using flexible shielded cabling to a four channel electrical swivel. Stimulation electrodes were connected to two-coupled constant current isolation units (PSIU6X, Grass Instruments West Warwick, RI) driven by an electrical stimulator (Grass S88X; Grass Instruments). The recording electrodes were connected to a differential amplifier (Grass LP511, West Warwick, RI). This configuration allows the rat to move freely while the stimulation and EMG recordings are taking place. After 60 min of habituation, biphasic current pulse trains (pulse of 0.1 ms at 120–200 µA; 100 Hz, 160 ms trains repeating once per 2 seconds) were delivered. The current intensity was adjusted to the threshold level, defined as the minimal level of current intensity allowing at least 95% of the stimulation pulses to elicit a positive EMG response. Positive EMG response was defined as at least 100% increase of the peak to peak amplitude respect to the background tonic EMG activity lasting more than 100 ms or at least 70% increase in the power of the EMG signal respect to the baseline. Positive EMG responses always matched observable small jaw movements. […]

[3] = system: rats; test: Locomotor activity in habituated rats; type: in vivo, rat; conditions: for Locomotor activation: 1 mg/kg i.p.; for Dose producing significant locomotor activation: i.p., 90 min after administration, habituated rats
Experimental: as §1, §2
Locomotor activity was measured by placing the animals individually in motility soundproof chambers (50×50 centimeters; Med Associates Inc., VT). Locomotion was measured by counting the number of breaks in the infrared beams of the chambers. The animals were placed in individual acrylic chambers at noon on the day of testing. A lamp inside each chamber remained lit during this period. Following 90 min of habituation, the rats were injected i.p. with different doses of each compound or vehicle and locomotor activity was recorded for 90 min after the drug or vehicle administration. All the animals were tested only once. The effect of different doses of the A2AR antagonists on locomotor activity were analyzed using a one-way analysis of variance (ANOVA), followed by Newman-Keuls' post-hoc test.

[4] = system: striatal glutamate release induced by cortical electrical stimulation; test: In vivo microdialysis with cortical electrical stimulation; design: species or system rat; conditions: 1 mg/kg i.p.
Experimental: as §1
Rats were anesthetized with 3 ml/kg of Equithesin (4.44 g of chloral hydrate, 0.972 g of Na pentobarbital, 2.124 g of MgSO4, 44.4 ml of propylene glycol, 12 ml of ethanol and distilled H2O up to 100 ml of final solution; NIDA Pharmacy, Baltimore, MD) and implanted unilaterally with bipolar stainless steel electrodes, 0.15 mm in diameter (Plastics One, Roanoke, VA), into the orofacial area of the lateral agranular motor cortex (3 mm anterior, 3 and 4 mm lateral, and 4.2 mm below bregma). The electrodes and a head holder (connected to a swivel during stimulation) were fixed on the skull with stainless steel screws and dental acrylic resin. […]
The experiments were performed on freely moving rats 24 h after probe implantation. […] Glutamate content was measured by reverse-phase HPLC coupled to a flourimetric detector (Shimadzu Inc., Tokio, Japan). Glutamate values were transformed as percentage of the mean of the three values before the drug or vehicle injection and transformed values were statistically analyzed.

[5] = target: A1R in A1R-A2AR heteromers (Homo sapiens, UniProt P30542); conditions: A2AR-A1R cells, [^3H]DPCPX 2 nM
[6] = target: T1, A2AR in A2AR-D2R heteromers (Homo sapiens, UniProt P29274); test: biochemical
[7] = target: T2, A2AR (Homo sapiens, UniProt P29274); test: biochemical
[8] = target: T2, A2AR; conditions: A2AR cells; [^3H]ZM-241385 2 nM
[9] = target: T3, A2AR in A1R-A2AR heteromers (Homo sapiens, UniProt P29274); conditions: A2AR-A1R cells, [^3H]ZM-241385 2 nM
[10] = target: T3, A2AR in A1R-A2AR heteromers; test: biochemical
[11] = target: T1, A2AR in A2AR-D2R heteromers; conditions: for Reduction of the affinity of A2AR by co-transfection with D2R: A2AR-D2R cells versus A2AR cells; for DCB (dimer cooperativity index): A2AR-D2R cells, A2AR, [^3H]ZM-241385 2 nM

T2 sequence (P29274 whole entry): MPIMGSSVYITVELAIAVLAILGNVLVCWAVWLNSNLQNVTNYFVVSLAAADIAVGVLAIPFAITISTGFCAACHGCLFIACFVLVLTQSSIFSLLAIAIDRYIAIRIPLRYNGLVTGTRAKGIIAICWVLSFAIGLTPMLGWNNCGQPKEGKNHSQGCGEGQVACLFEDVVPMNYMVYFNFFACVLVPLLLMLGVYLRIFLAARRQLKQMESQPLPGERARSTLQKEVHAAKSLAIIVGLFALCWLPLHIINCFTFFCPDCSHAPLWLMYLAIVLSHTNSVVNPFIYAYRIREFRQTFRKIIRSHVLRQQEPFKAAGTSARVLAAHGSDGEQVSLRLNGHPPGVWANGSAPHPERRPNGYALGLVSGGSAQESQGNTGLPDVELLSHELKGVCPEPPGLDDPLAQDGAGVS
T1 sequence (P29274 whole entry): as above
T1 sequence (P14416 whole entry partner): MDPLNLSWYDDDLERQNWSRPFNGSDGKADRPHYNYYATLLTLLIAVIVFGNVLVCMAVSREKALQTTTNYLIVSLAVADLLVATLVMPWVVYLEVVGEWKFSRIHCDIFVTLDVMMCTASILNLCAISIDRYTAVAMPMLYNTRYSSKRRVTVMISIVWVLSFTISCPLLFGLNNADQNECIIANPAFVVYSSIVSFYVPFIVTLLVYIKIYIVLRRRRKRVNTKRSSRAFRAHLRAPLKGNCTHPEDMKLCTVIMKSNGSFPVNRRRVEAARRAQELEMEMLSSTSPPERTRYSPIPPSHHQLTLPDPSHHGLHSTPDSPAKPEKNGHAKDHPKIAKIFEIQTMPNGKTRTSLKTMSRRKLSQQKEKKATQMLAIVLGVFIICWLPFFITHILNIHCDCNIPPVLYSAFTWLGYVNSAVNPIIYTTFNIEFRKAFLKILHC
T3 sequence (P29274 whole entry): as the sequence (P29274 whole entry) above
T3 sequence (P30542 whole entry partner): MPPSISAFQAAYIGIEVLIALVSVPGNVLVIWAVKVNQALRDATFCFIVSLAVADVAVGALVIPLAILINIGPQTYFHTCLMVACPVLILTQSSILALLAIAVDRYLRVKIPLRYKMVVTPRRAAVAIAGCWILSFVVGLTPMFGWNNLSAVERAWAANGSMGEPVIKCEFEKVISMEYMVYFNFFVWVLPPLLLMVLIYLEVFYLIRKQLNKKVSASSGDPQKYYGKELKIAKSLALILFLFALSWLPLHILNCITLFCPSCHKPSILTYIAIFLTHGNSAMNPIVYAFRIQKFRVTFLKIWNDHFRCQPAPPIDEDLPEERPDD
A1R in A1R-A2AR heteromers, sequence (P29274 whole entry): as the sequence (P29274 whole entry) above
A1R in A1R-A2AR heteromers, sequence (P30542 whole entry): as the sequence (P30542 whole entry partner) above

Row | Compound | Locomotor activation [3] | Dose producing significant locomotor activation [3] | Reduction of PCC ([2]; 1 mg/kg i.p.) | Dose significantly reducing PCC [2] | Effect on striatal glutamate release induced by cortical stimulation [4] | Kd [6] | Kd [7] | DCB (dimer cooperativity index) [8] | DCB (dimer cooperativity index) [9] | Kd [10] | Reduction of the affinity of A2AR by co-transfection with D2R [11] | DCB (dimer cooperativity index) [11] | also measured
1 | C#CCn1c(=O)c2c(nc(/C=C/c3cccc(OC)c3)n2C)n(CCCOP(=O)(O)O)c1=O.[Na].[Na] [MSX-3, (E)-phosphoric acid mono-(3-{8-[2-(3-methoxyphenyl)vinyl]-7-methyl-2,6-dioxo-1-prop-2-ynyl-1,2,6,7-tetrahydropurin-3-yl}propyl) ester disodium salt] | – | – | – | – | – | – | – | – | – | – | – | – | Effect on striatal glutamate release induced by cortical electrical stimulation [1]: almost completely counteracted; Reduction of PCC ([2]; dose-response, Fig. 2): very effective reduction of PCC
2 | COc1ccc(CCCn2ncc3c2nc(N)n2nc(-c4ccco4)nc32)cc1 [SCH-442416, 2-(2-Furanyl)-7-[3-(4-methoxyphenyl)propyl]-7H-pyrazolo[4,3-e][1], [2], [4]triazolo[1,5-c]pyrimidin-5-amine] | did not induce locomotor activation | higher than 3 mg/kg | strongly reduced PCC | 0.1 mg/kg | significantly counteracted | – | – | – | – | – | – | – | –
3 | C[C@H](Cc1ccccc1)Nc1ncnc2c1ncn2[C@@H]1O[C@H](CO)[C@@H](O)[C@H]1O [R-PIA] | – | – | – | – | – | – | – | – | – | – | – | – | B50 (concentration providing half saturation) [5]: 30 ± 10 nM
4 | COCCOc1ccc(N2CCN(CCn3ncc4c3nc(N)n3nc(-c5ccco5)nc43)CC2)cc1 [SCH-420814, 2-(2-furanyl)-7-[2-[4-[4-(2-methoxyethoxy)phenyl]-1-piperazinyl]ethyl]-7H-pyrazolo[4,3-e][1], [2], [4]-triazolo[1,5-c]pyrimidin-5-amine] | – | – | – | – | – | 2.7 ± 0.8 nM | 0.5 ± 0.1 nM | 0 | 0 | 1.1 ± 0.1 nM | two to about nine | 0 | –
5 | CCn1c(=O)c2c(nc(/C=C/c3ccc(OC)c(OC)c3)n2C)n(CC)c1=O [KW-6002, (E)-1,3-diethyl-8-(3,4-dimethoxystyryl)-7-methyl-3,7-dihydro-1H-purine-2,6-dione] | pronounced locomotor activation | 0.3 mg/kg | did not reduce PCC | > 10 mg/kg | did not modify | – | – | – | – | – | – | – | –
6 | C#CCn1c(=O)c2c(nc(/C=C/c3cccc(OC)c3)n2C)n(CCCO)c1=O [MSX-2, (E)-3-(3-hydroxypropyl)-8-[2-(3-methoxyphenyl)vinyl]-7-methyl-1-prop-2-ynyl-3,7-dihydropurine-2,6-dione] | – | – | – | – | – | 7 ± 2 nM | 3.2 ± 0.2 nM | 0 | 0 | 4.2 ± 0.3 nM | two to about nine | 0 | –
